From patent US8163767B2, “Heterocyclic Janus Kinase 3 inhibitors” (Astellas Pharma Inc., priority 2005, dated 2012)

molecular target: T1, human JAK3 (Homo sapiens, UniProt P52333); assay: Determination of Janus Kinase 3 (JAK3) inhibitory activity; format: biochemical; settings: test compound 10^−8M; read-out: IR (JAK3 inhibition rate)
T1 construct: His (N); purchased Carna Bioscience Inc. (Kobe, Japan); host or cells: baculovirus expression system
Procedure: Test 1: Determination of Janus Kinase 3 (JAK3) Inhibitory Activity
The assay for JAK3 activity was performed basically according to the method as proposed by Okimoto et al, as follows.
Purified kinase domain (KD) of human JAK3 was purchased from Carna Bioscience Inc. (Kobe, Japan). 796-1124 (end) amino acids of human JAK3 [accession number #NM_000215] was expressed as N-terminal His-tagged protein (41 kDa) using the baculovirus expression system and purified by using Ni-NTA affinity chromatography.
Biotin-Lyn-Substrate-peptide and ATP were used as substrates. Assay buffer consisted of 15 mM Tris-HCl pH7.5, 0.01% Tween 20 and 2 mM DTT. For the standard assay, 20 μL of substrate solution (Assay buffer containing 627 nM Biotin-Lyn-Substrate-2, 20 μM ATP and 25 mM MgCl2), 10 μL of assay buffer containing test compound and 20 μL of enzyme solution were added to the plate and mixed well.
After 1 hour incubation at ambient temperature, the plate was washed 4 times with wash buffer (50 mM Tris-HCl pH 7.5, 150 mM NaCl, 0.02% Tween 20), and then blocking buffer (wash buffer containing 0.1% Bovine serum albumin) was added to the plate. After 30 minutes incubation at ambient temperature, blocking buffer was removed and HRP-PY-20 solution (HRP-PY-20 500 times diluted with blocking buffer) was added. After 30 minutes incubation at ambient temperature, the plate was washed 4 times and TMB substrate solution (Sigma) was added to the plate. After 4 minutes incubation at ambient temperature, 1 M H2SO4 was added to the plate to stop the reaction. Enzyme activity was measured as optical density at 450 nm.

T1 sequence (P52333 796-1124): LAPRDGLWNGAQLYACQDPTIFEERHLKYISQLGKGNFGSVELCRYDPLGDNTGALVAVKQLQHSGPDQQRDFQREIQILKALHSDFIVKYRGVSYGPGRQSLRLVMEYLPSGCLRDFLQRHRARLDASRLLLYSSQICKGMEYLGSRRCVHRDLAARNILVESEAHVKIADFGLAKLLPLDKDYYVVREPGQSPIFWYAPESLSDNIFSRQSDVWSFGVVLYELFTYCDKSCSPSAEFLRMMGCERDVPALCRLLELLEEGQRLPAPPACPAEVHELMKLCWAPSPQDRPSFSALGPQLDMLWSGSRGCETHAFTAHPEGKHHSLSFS

Q: How did the inhibition at 0.01 µM turn out when CC1CCN(c2ncc(C#N)s2)CC1n1c(=O)[nH]c2cnc3[nH]ccc3c21 (stereo not shown) [Example 242, 2-[4-Methyl-3-(2-oxo-3,6-dihydroimidazo[4,5-d]pyrrolo[2,3-b]-pyridin-1(2H)-yl)-1-piperidinyl]-thiazole-5-carbonitrile] was run?
A: > 50%

Q: For CC1CCN(c2ccc(C#N)nn2)CC1n1c(=O)[nH]c2cnc3[nH]ccc3c21 (stereo not shown) [Example 244, 6-[4-Methyl-3-(2-oxo-3,6-dihydroimidazo[4,5-d]pyrrolo[2,3-b]-pyridin-1(2H)-yl)-1-piperidinyl]-3-pyridazinecarbonitrile], which inhibition at 0.01 µM is on record?
A: > 50%

Q: For CC1CCN(C(=O)N(C)C)CC1n1c(=O)[nH]c2cnc3[nH]ccc3c21 (stereo not shown) [Example 275, N,N,4-Trimethyl-3-(2-oxo-3,6-dihydroimidazo[4,5-d]pyrrolo-[2,3-b]pyridin-1(2H)-yl)-1-piperidine carboxamide], which inhibition at 0.01 µM is on record?
A: > 50%

Q: CC1CCN(C(=O)N2CC(C#N)C2)CC1n1c(=O)[nH]c2cnc3[nH]ccc3c21 (stereo not shown) [Example 280, 1-{[4-Methyl-3-(2-oxo-3,6-dihydroimidazo[4,5-d]pyrrolo[2,3-b]-pyridin-1(2H)-yl)-1-piperidinyl]carbonyl}-3-azetidinecarbonitrile] was tested. Which inhibition at 0.01 µM did it give?
A: > 50%

Q: Which inhibition at 0.01 µM does the source give for CC1CCN(C(=O)N(C)CC#N)CC1n1c(=O)[nH]c2cnc3[nH]ccc3c21 (stereo not shown) [Example 284, N-(Cyanomethyl)-N,4-dimethyl-3-(2-oxo-3,6-dihydroimidazo-[4,5-d]pyrrolo[2,3-b]pyridin-1(2H)-yl)-1-piperidinecarboxamide] here?
A: > 50%

Q: How did the inhibition at 0.01 µM turn out when N#Cc1ccc(N2CCC(Nc3c(C(N)=O)cnc4[nH]cnc34)CC2)nc1 [Example 322, 7-{[1-(5-cyano-2-pyridinyl)-4-piperidinyl]amino}-3H-imidazo[4,5-b]pyridine-6-carboxamide] was run?
A: > 50%

Q: With C[C@@H]1CCCC[C@@H]1n1c(=O)[nH]c2cnc3[nH]cc(Br)c3c21 [Example 324, 8-bromo-1-[(1S,2R)-2-methylcyclohexyl]-3,6-dihydroimidazo[4,5-d]pyrrolo[2,3-b]pyridin-2(1H)-one] as the compound, how does the inhibition at 0.01 µM read?
A: > 50%
